What was measured:
physchem = details: organic solvent or mixture, thermodynamic from solid
[1] = Light resistance evaluation of ink image samples (exposure test); details: ink image sample with L* closest to 60; Weather-Ometer exposure 36 hours, black panel 50° C., chamber 40° C., RH 70%, 340 nm 0.39 W/m^2; less than 10 = good
Solubility in water = format: physicochemical
From the text: The water-insoluble coloring compound represented by Formula (1) of the present invention has a high affinity to an organic solvent. In the present invention, the term “water-insoluble” refers to that the solubility in water is less than 1% as mass percentage.

| SMILES | ΔE (36 h) [1] | further results |
| --- | --- | --- |
| CCN(CC)c1ccc2c(c1)Oc1cc(N(CC)CC)ccc1C21OC(=O)c2ccccc21 [(1)] | 15.8 | solubility (physchem; chloroform): > 42.9 mg/mL; solubility (physchem; ethyl acetate): < 42.9 mg/mL; solubility (physchem; methanol): > 42.9 mg/mL; solubility (physchem; toluene): < 42.9 mg/mL |
| Nc1c(Oc2ccccc2)cc(O)c2c1C(=O)c1ccccc1C2=O [(2)] | 12.3 | solubility (physchem; chloroform): < 42.9 mg/mL; solubility (physchem; ethyl acetate): < 42.9 mg/mL; solubility (physchem; methanol): < 42.9 mg/mL; solubility (physchem; toluene): < 42.9 mg/mL |
| Cc1ccc(/N=N/c2c(O)c(C(=O)O)cc3ccccc23)c(S(=O)(=O)O)c1 [(3)] | 1.5 | solubility (physchem; chloroform): < 42.9 mg/mL; solubility (physchem; ethyl acetate): < 42.9 mg/mL; solubility (physchem; methanol): < 42.9 mg/mL; solubility (physchem; toluene): < 42.9 mg/mL |
| CC(=O)Nc1c(C)c(N=c2ccc3c(-c4ccccc4S(=O)(=O)O)c4ccc(Nc5c(C)c(NC(C)=O)c(C)c(NC(C)=O)c5C)cc4oc-3c2)c(C)c(NC(C)=O)c1C [(11)] | 2.3 | – |
| CCOC(=O)c1ccccc1C(=O)Nc1c(C)cc(C)c(N=c2ccc3c(-c4ccccc4S(=O)(=O)O)c4ccc(Nc5c(C)cc(C)c(NC(=O)c6ccccc6C(=O)OCC)c5C)cc4oc-3c2)c1C [(12)] | 3.5 | – |
| CC(=O)Nc1c(C)cc(C)c(N=c2ccc3c(-c4ccccc4S(=O)(=O)O)c4ccc(Nc5c(C)c(NC(C)=O)c(C)c(NC(C)=O)c5C)cc4oc-3c2)c1C [(13)] | 3.1 | – |
| CCc1ccc(NC(C)=O)c(CC)c1N=c1ccc2c(-c3ccccc3S(=O)(=O)O)c3ccc(Nc4c(CC)ccc(NC(C)=O)c4CC)cc3oc-2c1 [(14)] | 5.2 | – |
| CCc1ccc(NC(C)=O)c(CC)c1Nc1ccc2c(-c3ccccc3S(=O)(=O)O)c3ccc(=Nc4c(C)ccc(NC(C)=O)c4C)cc-3oc2c1 [(15)] | 5.0 | – |
| CC(=O)Nc1ccc(C)c(N=c2ccc3c(-c4ccccc4S(=O)(=O)O)c4ccc(Nc5c(C(C)C)ccc(NC(C)=O)c5C(C)C)cc4oc-3c2)c1C [(16)] | 5.8 | – |
| C=C(C)C(=O)Nc1c(C)cc(C)c(N=c2ccc3c(-c4ccccc4S(=O)(=O)O)c4ccc(Nc5c(C)cc(C)c(NC(=O)C(=C)C)c5C)cc4oc-3c2)c1C [(21)] | 7.8 | – |
| Cc1cc(C)c(NC(=O)c2cccnc2)c(C)c1N=c1ccc2c(-c3ccccc3S(=O)(=O)O)c3ccc(Nc4c(C)cc(C)c(NC(=O)c5cccnc5)c4C)cc3oc-2c1 [(22)] | 5.0 | – |
| CCCCCCCCCCCCCCCCCC(=O)Nc1c(C)cc(C)c(N=c2ccc3c(-c4ccccc4S(=O)(=O)O)c4ccc(Nc5c(C)cc(C)c(NC(=O)CCCCCCCCCCCCCCCCC)c5C)cc4oc-3c2)c1C [(23)] | 3.8 | – |

Continued, in another order:

| ΔE (36 h) [1] | SMILES | further results |
| --- | --- | --- |
| 3.9 | CCOc1cc(C)c(N=c2ccc3c(-c4ccccc4S(=O)(=O)O)c4ccc(Nc5c(C)cc(OCC)c(NC(C)=O)c5C)cc4oc-3c2)c(C)c1NC(C)=O [(18)] | – |
| 3.2 | CC(=O)Nc1c(C)cc(C)c(N=c2ccc3c(-c4ccccc4S(=O)(=O)O)c4ccc(Nc5c(C)cc(C)c(NC(C)=O)c5C)cc4oc-3c2)c1C [Compound (5)] | solubility in water (Solubility in water): less than 1 % as mass percentage |
| 3.3 | CCC(=O)Nc1c(C)cc(C)c(N=c2ccc3c(-c4ccccc4S(=O)(=O)O)c4ccc(Nc5c(C)cc(C)c(NC(=O)CC)c5C)cc4oc-3c2)c1C [Compound (6)] | – |
| 3.2 | CCCC(=O)Nc1c(C)cc(C)c(N=c2ccc3c(-c4ccccc4S(=O)(=O)O)c4ccc(Nc5c(C)cc(C)c(NC(=O)CCC)c5C)cc4oc-3c2)c1C [Compound (7)] | – |
| 2.9 | Cc1cc(C)c(NC(=O)C(C)C)c(C)c1N=c1ccc2c(-c3ccccc3S(=O)(=O)O)c3ccc(Nc4c(C)cc(C)c(NC(=O)C(C)C)c4C)cc3oc-2c1 [Compound (8)] | – |
| 3.8 | Cc1cc(C)c(NC(=O)c2ccccc2)c(C)c1N=c1ccc2c(-c3ccccc3S(=O)(=O)O)c3ccc(Nc4c(C)cc(C)c(NC(=O)c5ccccc5)c4C)cc3oc-2c1 [Compound (10)] | – |
